Test results from patent US8506950B2, “Degradable microcapsules” (ETH Zurich, priority 2008, dated 2013).

Tested on: PhCMV*-1 and PETR driven SecCell expression
Assay: Transient expression of SecCell under antibiotic-responsive promoters in mammalian cells
Assay type: cell-based, human, hamster
Conditions: HEK293-T, HeLa, HT-1080, CHO-K1, BHK-21, transient transfection
Source text: (B) Transient expression of cellulase in HEK293-T, HeLa, HT-1080, BHK-21 and CHO-K1 cells. Cellulase was either driven by a constitutive (PhCMV) or antibiotic-responsive promoters (PhCMV*-1 and PETR).
The Bacillus subtilis endo (1-4)-beta-glucanase was PCR-amplified from genomic DNA and fused to a strong mammalian secretion signal sequence derived from the murine Igk-chain V-12-C region. The secreted cellulase (SecCell) was cloned downstream of a constitutive promoter (PhCMV) as well as two different inducible promoters which enabled doxycycline-(PhCMV*-1) and erythromycin-(PETR) adjustable transgene expression (FIG. 1A).
Cellulase was quantified using EnzCheck® fluorescent substrate (Molecular Probes, Eugene, Oreg., USA) according to the manufacturer's protocol: 20 μl of cell culture supernatant was centrifuged at 16,000×g for one minute to remove cell debris and 15 μl of appropriate dilutions in PBS (Invitrogen, cat. no. 21600-069) were transferred to a 384-well plate containing 15 μl sodium acetate buffer (200 mM sodium acetate, pH 5.5) per well supplemented with 3 μl substrate solution. Plates were incubated at 37° C. for 30 minutes and fluorescence intensity was measured subsequently at 340 nm (excitation wavelength) and 450 nm (emission wavelength) in a Genios Pro multiwell plate reader (Tecan A G, Maennedorf, Switzerland). […]

## CC[C@H]1OC(=O)[C@H](C)[C@@H](O[C@H]2C[C@@](C)(OC)[C@@H](O)[C@H](C)O2)[C@H](C)[C@@H](O[C@@H]2O[C@H](C)C[C@H](N(C)C)[C@H]2O)[C@](C)(O)C[C@@H](C)C(=O)[C@H](C)[C@@H](O)[C@]1(C)O [EM, erythromycin]
  SecCell production (cellulase activity in the culture supernatants): repressed
